In PubChem BioAssay (NCI):
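Tested at 5 concentrations; 48 h exposure; 96-well plates; endpoints linearly interpolated, else capped at highest concentration. Abbreviation: GI50, concentration required for 50% inhibition of growth. TGI: total growth inhibition.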

Legend:
Experiment in all cases: NCI tumour cell line growth inhibition, 48 h
SK-OV-3 ovarian = tested on: SK-OV-3 ovarian
NCI/ADR-RES ovarian = tested on: NCI/ADR-RES ovarian
SW-620 colon = tested on: SW-620 colon
MOLT-4 leukemia = tested on: MOLT-4 leukemia
SNB-19 CNS = tested on: SNB-19 CNS
SK-MEL-28 melanoma = tested on: SK-MEL-28 melanoma
HCT-116 colon = tested on: HCT-116 colon
EKVX NSCLC = tested on: EKVX NSCLC
SF-295 CNS = tested on: SF-295 CNS
OVCAR-3 ovarian = tested on: OVCAR-3 ovarian

SMILES | GI50 (SK-OV-3 ovarian) | TGI (SK-OV-3 ovarian) | GI50 (NCI/ADR-RES ovarian) | TGI (NCI/ADR-RES ovarian) | GI50 (SW-620 colon) | TGI (SW-620 colon) | GI50 (MOLT-4 leukemia) | TGI (MOLT-4 leukemia) | GI50 (SNB-19 CNS) | TGI (SNB-19 CNS) | GI50 (SK-MEL-28 melanoma) | GI50 (HCT-116 colon) | TGI (HCT-116 colon) | GI50 (EKVX NSCLC) | TGI (EKVX NSCLC) | GI50 (SF-295 CNS) | TGI (SF-295 CNS) | GI50 (OVCAR-3 ovarian) | TGI (OVCAR-3 ovarian) | TGI (SK-MEL-28 melanoma)
COc1cc(/C=C2\CC3C4CC=C5CC(OC(C)=O)CC[C@]5(C)C4CC[C@]3(C)C2=O)ccc1OCCN1CCCC1 (some centres undefined) | 23.7 µM | > 63.9 µM | 12 µM | 24.9 µM | 4.89 µM | 22.9 µM | 1.87 µM | 8.5 µM | 23.6 µM | > 66.9 µM | 2.54 µM | 1.52 µM | 3.14 µM | 18 µM | 35.4 µM | 4.8 µM | 11.8 µM | 3 µM | 10.5 µM | –
CCN1CCN(CCC(=O)Nc2cccc(-n3cc(-c4ccncc4)c(-c4ccc(Cl)c(OC)c4)n3)c2)CC1 | 1.84 µM | 7.67 µM | 1.27 µM | 4.29 µM | 0.338 µM | 1.5 µM | 0.661 µM | 5.76 µM | 1.08 µM | 5.61 µM | 1.39 µM | 0.374 µM | 1.62 µM | 1.06 µM | 4.76 µM | 0.36 µM | 1.63 µM | 0.352 µM | 1.43 µM | 2.97 µM
O=c1[nH]c2ccccc2n1C1CCNCC1 | > 100 µM | > 100 µM | > 100 µM | > 100 µM | > 100 µM | > 100 µM | > 100 µM | > 100 µM | > 100 µM | > 100 µM | > 100 µM | > 100 µM | > 100 µM | > 100 µM | > 100 µM | > 100 µM | > 100 µM | > 100 µM | > 100 µM | > 100 µM
COc1ccc(C2=NN(C(N)=S)C(c3ccc4c(c3)OCO4)C2)cc1 (centres undefined) | 2.35 µM | 6.12 µM | 2.9 µM | 12.6 µM | 2.29 µM | 5.92 µM | 3.02 µM | 34.5 µM | 3.13 µM | 22.8 µM | 9.33 µM | 2.96 µM | 22.9 µM | 2.54 µM | 37.9 µM | 2.64 µM | 11.9 µM | 2.07 µM | 4.72 µM | > 100 µM
N#CC1=C(N)Oc2c(sc3c(Br)cccc23)C1c1ccc([N+](=O)[O-])cc1 (centres undefined) | 0.128 µM | 15.1 µM | 0.0398 µM | 8.37 µM | 0.0708 µM | 14.5 µM | 0.223 µM | 6.07 µM | 0.139 µM | 13 µM | 2.66 µM | 0.0799 µM | 11 µM | 0.462 µM | 19.4 µM | 0.0417 µM | 11.1 µM | 0.0403 µM | 0.849 µM | 21 µM
CC1CCCCCC(=O)c2c(O)cc(O)cc2CC(=O)O1 (centres undefined) | – | > 100 µM | – | > 100 µM | – | > 100 µM | – | > 100 µM | – | > 100 µM | – | – | > 100 µM | – | > 100 µM | – | > 100 µM | – | > 100 µM | > 100 µM
Cc1c(Cl)cccc1C(=O)Nc1nc2c(s1)CN(C(=O)Nc1cccc(C(F)(F)F)c1)CC2 | 0.215 µM | > 50 µM | 0.14 µM | 1.01 µM | 0.175 µM | > 50 µM | 0.291 µM | > 50 µM | 0.307 µM | > 50 µM | 0.985 µM | 0.212 µM | > 50 µM | 0.346 µM | > 50 µM | 0.125 µM | > 41.6 µM | 0.14 µM | 0.539 µM | > 50 µM
CC(=O)OCC1C(=O)OCC1C(=O)N1Cc2cc3ccccc3nc2C1 (centres undefined) | – | 31.1 µM | – | 7.56 µM | – | 1.68 µM | – | 4.25 µM | – | 32.8 µM | – | – | 3.5 µM | – | 17.3 µM | – | 29.9 µM | – | 6.14 µM | 7.07 µM
O=C(N/N=C/c1ccc(Cl)cc1)c1ccc(NC(=O)c2ccccn2)cc1 | 31 µM | > 100 µM | 16.2 µM | > 100 µM | 59 µM | > 100 µM | > 100 µM | > 100 µM | 30 µM | > 100 µM | 33 µM | 11.8 µM | > 100 µM | 48.7 µM | > 100 µM | 28.7 µM | > 100 µM | 14 µM | 33.6 µM | > 100 µM
O=C(NCc1cn(Cc2cccc(Oc3ccccc3)c2)nn1)c1cccnc1Nc1ccc(F)cc1 | 5.94 µM | 36.1 µM | 14 µM | > 100 µM | 6.58 µM | > 100 µM | > 100 µM | > 100 µM | 20.7 µM | > 100 µM | 7.98 µM | 5.02 µM | > 100 µM | 25.3 µM | > 100 µM | 5.66 µM | 47.6 µM | 17.7 µM | > 100 µM | > 100 µM
C[N+]1([O-])C2CCC1CC(OC(=O)C(CO)c1ccccc1)C2 (centres undefined) | – | > 100 µM | – | > 100 µM | – | > 100 µM | – | > 100 µM | – | > 100 µM | – | – | > 100 µM | – | > 100 µM | – | > 100 µM | – | > 100 µM | > 100 µM
COC(=O)c1c2c(c(C)[n+]([O-])c1C)C(=O)C(NCc1ccc(OC)cc1)=CC2=O | 4.11 µM | 15.8 µM | 2.42 µM | 7.49 µM | 1.95 µM | 4.26 µM | 2.36 µM | 6.63 µM | 2.11 µM | 5.03 µM | 2.95 µM | 2.17 µM | 7.13 µM | 1.88 µM | 4.44 µM | 1.79 µM | 5.09 µM | 0.315 µM | 1.2 µM | 11.3 µM
